{
  "source": "DBAASP",
  "assay_in_all_cases": "≥ marks a high value that may be exact or a test limit, other limits are often not marked, values filed in µg/mL are converted to µM",
  "key": {"[1]": {"system": "Pseudomonas aeruginosa CICC 10419"}, "[2]": {"system": "Enterococcus faecalis CVCC 3936"}, "[3]": {"system": "Candida albicans CGMCC 2.2411"}, "[4]": {"system": "Listeria ivanovii ATCC 19119"}, "[5]": {"system": "Bacillus subtilis ATCC 6633"}, "[6]": {"system": "Escherichia coli CVCC 195"}, "[7]": {"system": "Staphylococcus aureus ATCC 43300"}, "[8]": {"system": "Escherichia coli CVCC 1515"}, "[9]": {"system": "Salmonella enterica subsp. enterica serovar Pullorum CVCC 533"}, "[10]": {"system": "Streptococcus suis CVCC 606"}, "[11]": {"system": "Salmonella enterica subsp. enterica serovar Pullorum CVCC 1809"}, "[12]": {"system": "Salmonella enterica subsp. enterica serovar Typhimurium ATCC 14028"}, "[13]": {"system": "Acinetobacter baumannii ATCC 7978"}, "[14]": {"system": "Enterococcus faecium E007"}, "[15]": {"system": "Staphylococcus aureus ATCC 29231"}, "[16]": {"system": "Staphylococcus aureus MW2"}, "[17]": {"system": "Fusarium verticillioides KCTC 6149"}, "[18]": {"system": "Trichosporon beigelii KCTC 7707"}, "[19]": {"system": "Candida krusei CCARM 14017"}, "[20]": {"system": "Fusarium oxysporum KCTC 16909"}, "[21]": {"system": "Candida tropicalis KCTC 7221"}, "[22]": {"system": "Candida parapsilosis CCARM 14016"}, "Staphylococcus aureus": {"system": "Staphylococcus aureus"}, "[23]": {"system": "Staphylococcus epidermidis"}, "Escherichia coli": {"system": "Escherichia coli"}, "Bacillus cereus": {"system": "Bacillus cereus"}, "Listeria innocua": {"system": "Listeria innocua"}, "Pasteurella multocida": {"system": "Pasteurella multocida"}, "Streptococcus uberis": {"system": "Streptococcus uberis"}, "Micrococcus luteus": {"system": "Micrococcus luteus"}, "Leuconostoc lactis": {"system": "Leuconostoc lactis"}, "Escherichia coli DH10B": {"system": "Escherichia coli DH10B"}, "[24]": {"system": "Saccharomyces cerevisiae BY4741"}, "Staphylococcus aureus MR": {"system": "Staphylococcus aureus MR"}, "Candida albicans": {"system": "Candida albicans"}, "[25]": {"system": "Staphylococcus aureus ATCC 49476"}, "[26]": {"system": "Pseudomonas aeruginosa ATCC 27853"}},
  "note": "Where “and” joins values, the source holds several entries; their conditions need not be identical. Equal entries are not always repeated.",
  "data": [
    {"smiles": "CC(C)[C@H](N)C(=O)N[C@H]1CSSC[C@@H](C(=O)N[C@@H](Cc2cnc[nH]2)C(=O)N[C@@H](CCCN=C(N)N)C(=O)N[C@@H](CCCN=C(N)N)C(=O)N[C@@H](C)C(=O)N[C@@H](CC(N)=O)C(=O)N[C@@H](CC(N)=O)C(=O)NCC(=O)N[C@H](C(=O)N[C@@H](CCCN=C(N)N)C(=O)N[C@H](C(=O)O)C(C)C)C(C)C)NC(=O)[C@H](CC(N)=O)NC(=O)[C@H](Cc2c[nH]c3ccccc23)NC(=O)[C@H](C)NC(=O)[C@H](Cc2ccccc2)NC(=O)CNC(=O)[C@H](CCCN=C(N)N)NC(=O)[C@H](Cc2ccc(O)cc2)NC(=O)[C@H](C(C)C)NC1=O", "note": "[VCVYRGFAWNCHRRANNGVRV]", "values": [
      {"measurement": "MIC", "setting": "[1]", "value": 25.8, "unit": "µM"},
      {"measurement": "MIC", "setting": "[2]", "value": 25.8, "unit": "µM"},
      {"measurement": "MIC", "setting": "[3]", "value": 25.8, "unit": "µM"},
      {"measurement": "MIC", "setting": "[4]", "value": 25.8, "unit": "µM"},
      {"measurement": "MIC", "setting": "[5]", "value": 25.8, "unit": "µM"},
      {"measurement": "MIC", "setting": "[6]", "value": 25.8, "unit": "µM"},
      {"measurement": "MIC", "setting": "[7]", "value": "> 25.8", "unit": "µM"},
      {"measurement": "MIC", "setting": "[8]", "value": 25.8, "unit": "µM"},
      {"measurement": "MIC", "setting": "[9]", "value": 25.8, "unit": "µM"},
      {"measurement": "MIC", "setting": "[10]", "value": 25.8, "unit": "µM"},
      {"measurement": "MIC", "setting": "[11]", "value": 25.8, "unit": "µM"},
      {"measurement": "MIC", "setting": "[12]", "value": "> 25.8", "unit": "µM"}
    ]},
    {"smiles": "CC[C@H](C)[C@H](NC(=O)[C@H](CCCCN)NC(=O)[C@H](CCCCN)NC(=O)[C@@H](N)CC(C)C)C(=O)NCC(=O)N[C@@H](CCCCN)C(=O)N[C@@H](CCCCN)C(=O)N[C@H](C(=O)N[C@@H](Cc1c[nH]c2ccccc12)C(=O)N[C@@H](CCCN=C(N)N)C(=O)N[C@H](C(=O)NCC(=O)N[C@@H](Cc1c[nH]c2ccccc12)C(=O)N[C@@H](CC(N)=O)C(=O)N[C@H](C(=O)N[C@@H](CCCN=C(N)N)C(=O)O)[C@@H](C)O)C(C)C)[C@@H](C)CC", "note": "[LKKIGKKIWRVGWNTR]", "values": [
      {"measurement": "MIC", "setting": "[13]", "value": "≥ 64.5", "unit": "µM"},
      {"measurement": "MIC", "setting": "[14]", "value": "≥ 64.5", "unit": "µM"},
      {"measurement": "MIC", "setting": "[15]", "value": "≥ 64.5", "unit": "µM"},
      {"measurement": "MIC", "setting": "[16]", "value": "≥ 64.5", "unit": "µM"}
    ]},
    {"smiles": "CC[C@H](C)[C@H](NC(=O)[C@H](C)NC(=O)[C@H](CCC(=O)O)NC(=O)[C@H](Cc1cnc[nH]1)NC(=O)[C@H](C)NC(=O)CNC(=O)[C@H](CCC(N)=O)NC(=O)[C@H](Cc1ccccc1)NC(=O)[C@@H](NC(=O)[C@H](CCCCN)NC(=O)[C@H](CCCCN)NC(=O)[C@H](C)NC(=O)[C@H](C)NC(=O)[C@H](CC(N)=O)NC(=O)[C@H](CC(C)C)NC(=O)CN)C(C)C)C(=O)N[C@@H](CCCCN)C(=O)N[C@@H](CC(C)C)C(=O)N[C@H](C(=O)N[C@@H](CC(N)=O)C(=O)N[C@@H](CC(N)=O)C(=O)N[C@@H](Cc1cnc[nH]1)C(=O)N[C@H](C(=O)N[C@@H](CCC(N)=O)C(N)=O)C(C)C)[C@@H](C)CC", "note": "[GLNAAKKVFQGAHEAIKLINNHVQ]", "values": [
      {"measurement": "MIC", "setting": "[17]", "value": "≥ 48", "unit": "µM"},
      {"measurement": "MIC", "setting": "[18]", "value": 2, "unit": "µM"},
      {"measurement": "MIC", "setting": "[19]", "value": 8, "unit": "µM"},
      {"measurement": "MIC", "setting": "[20]", "value": "4 µM and 12 µM"},
      {"measurement": "MIC", "setting": "[21]", "value": "4 µM and 2 µM"},
      {"measurement": "MIC", "setting": "[22]", "value": "≥ 64", "unit": "µM"}
    ]},
    {"smiles": "CC[C@H](C)[C@H](NC(=O)[C@H](CO)NC(=O)[C@H](CO)NC(=O)[C@H](CCSC)NC(=O)[C@H](CC(C)C)NC(=O)CN)C(=O)NCC(=O)N[C@@H](CCCCN)C(=O)N[C@@H](C)C(=O)N[C@@H](CC(C)C)C(=O)NCC(=O)NCC(=O)N[C@@H](CC(C)C)C(=O)N[C@H](C(=O)N[C@H](C(=O)N[C@@H](CC(=O)O)C(=O)N[C@H](C(=O)N[C@@H](CC(C)C)C(=O)N[C@@H](CCCCN)C(=O)N1CCC[C@H]1C(=O)N[C@@H](CCCCN)C(=O)N[C@H](C(=O)N1CCC[C@H]1C(=O)N[C@@H](C)C(=O)N[C@@H](CO)C(=O)O)[C@@H](C)O)C(C)C)C(C)C)[C@@H](C)CC", "note": "[GLMSSIGKALGGLIVDVLKPKTPAS]", "values": [
      {"measurement": "MIC", "setting": "Staphylococcus aureus", "value": "> 40.8", "unit": "µM"},
      {"measurement": "MIC", "setting": "[23]", "value": "≥ 40.8", "unit": "µM"},
      {"measurement": "MIC", "setting": "Escherichia coli", "value": "> 40.8", "unit": "µM"},
      {"measurement": "MIC", "setting": "Bacillus cereus", "value": "≥ 40.8", "unit": "µM"},
      {"measurement": "MIC", "setting": "Listeria innocua", "value": "≥ 40.8", "unit": "µM"},
      {"measurement": "MIC", "setting": "Pasteurella multocida", "value": "≥ 40.8", "unit": "µM"},
      {"measurement": "MIC", "setting": "Streptococcus uberis", "value": 20.4, "unit": "µM"},
      {"measurement": "MIC", "setting": "Micrococcus luteus", "value": "≥ 40.8", "unit": "µM"},
      {"measurement": "MIC", "setting": "Leuconostoc lactis", "value": "≥ 40.8", "unit": "µM"}
    ]},
    {"smiles": "CSCC[C@H](NC(=O)[C@@H]1CCCN1C(=O)[C@H](CCC(N)=O)NC(=O)CNC(=O)[C@@H]1CCCN1C(=O)[C@H](CCCCN)NC(=O)[C@H](CC(C)C)NC(=O)[C@H](CCC(N)=O)NC(=O)[C@H](CC(C)C)NC(=O)[C@H](Cc1c[nH]c2ccccc12)NC(=O)[C@H](Cc1cnc[nH]1)NC(=O)[C@H](Cc1c[nH]c2ccccc12)NC(=O)[C@H](Cc1ccccc1)NC(=O)[C@H](CCCN=C(N)N)NC(=O)[C@H](CC(N)=O)NC(=O)[C@H](CC(C)C)NC(=O)[C@H](Cc1ccccc1)NC(=O)[C@@H](N)CCCCN)C(=O)N[C@@H](Cc1ccc(O)cc1)C(=O)O", "note": "[KFLNRFWHWLQLKPGQPMY]", "values": [
      {"measurement": "MIC", "setting": "Escherichia coli DH10B", "value": 20, "unit": "µM"},
      {"measurement": "MIC", "setting": "[24]", "value": 10, "unit": "µM"}
    ]},
    {"smiles": "CC[C@H](C)[C@H](NC(=O)[C@H](C)NC(=O)[C@H](CCCCN)NC(=O)CNC(=O)[C@H](C)NC(=O)[C@H](CO)NC(=O)[C@H](Cc1ccccc1)NC(=O)[C@H](CC(C)C)NC(=O)CNC(=O)CNC(=O)[C@@H](NC(=O)[C@@H](NC(=O)[C@H](Cc1cnc[nH]1)NC(=O)[C@H](Cc1cnc[nH]1)NC(=O)[C@H](C)NC(=O)[C@H](C)N)[C@@H](C)CC)[C@@H](C)CC)C(=O)N[C@@H](Cc1cnc[nH]1)C(=O)N[C@@H](CCCN=C(N)N)C(=O)N[C@@H](CC(C)C)C(=O)N[C@H](C(=O)N[C@@H](CCCN=C(N)N)C(=O)N[C@@H](CCCN=C(N)N)C(=O)N[C@@H](CCCN=C(N)N)C(=O)N[C@@H](CCCN=C(N)N)C(=O)N[C@@H](CCCN=C(N)N)C(=O)O)[C@@H](C)CC", "note": "[AAHHIIGGLFSAGKAIHRLIRRRRR]", "values": [
      {"measurement": "MIC", "setting": "Staphylococcus aureus MR", "value": "≥ 179", "unit": "µM"},
      {"measurement": "MIC", "setting": "Candida albicans", "value": 22.4, "unit": "µM"},
      {"measurement": "MIC", "setting": "[25]", "value": "≥ 44.7", "unit": "µM"},
      {"measurement": "MIC", "setting": "[26]", "value": 89.4, "unit": "µM"}
    ]}
  ]
}
